According to patent US8609661B2, “Pyrimido-pyrrolo-quinoxalinedione inhibitors of cystic fibrosis transmembrane conductance regulator protein and uses therefor” (The Regents of the University of California, priority 2009, dated 2013):
Where two headings read alike, the source gives them in different places.

Target: T1, human wildtype CFTR (Homo sapiens, UniProt P13569)
T1 construct: expressed in transfected cells; host or cells: Fischer rat thyroid (FRT) cells
Experiment: Fluorescence platereader assay of CFTR-mediated iodide influx (YFP quenching) in FRT cells
Type: cell-based
Conditions: for inhibition at 5 µM / inhibition at 25 µM: FRT; for IC50: apparent IC50 from concentration-inhibition data, fluorescence platereader assay
Protocol: A. Cell lines and compounds—Fischer rat thyroid (FRT) cells co-expressing human wildtype CFTR and the halide indicator YFP-H148Q/1152L were generated as described (see, e.g., Ma et al., J. Clin. Invest. 110:1651-1658 (2002)). Cells were plated in 96-well black-walled microplates (Corning Costar) at a density of 20,000 cells per well in Coon's modified F12 medium supplemented with 5% fetal calf serum, 2 mM L-glutamine, 100 U/mL penicillin, and 100 μg/ml streptomycin. Assays were performed at 48 h after plating the cells when the cells were just confluent. For some experiments, measurements were made using T84 human intestinal epithelial cells and for other experiments, measurements were obtained using primary cultures of human bronchial epithelial cells, which were obtained and grown essentially as previously described (see, e.g., 3 and 27).
B. Compound Screening—Assays were performed using an automated screening platform (Beckman) equipped with FLUOStar fluorescence platereaders (BMG Lab Technologies, Offenburg, Germany) as described (see Ma et al., supra). Each well of a 96-well plate containing FRT cells was washed 3 times in PBS (300 μL/wash), leaving 50 μL PBS. […] After 15 min, 96-well plates were transferred to a plate reader for fluorescence assay. Each well was assayed individually for CFTR-mediated iodide influx by recording fluorescence continuously (200 ms per point) for 2 s (baseline) and then for 10 s after rapid addition of 160 μL of isosmolar PBS in which 137 mM chloride was replaced by iodide. The initial rate of iodide influx was computed from fluorescence data by non-linear regression.
Collections of synthetic and natural compounds were screened according to the screening procedures described in Example 2. A cell-based fluorescence assay was used in which CFTR inhibitors were identified by reduced iodide influx in FRT cells co-expressing human CFTR and a YFP halide sensor. CFTR was maximally activated by a mixture of agonists having different activating mechanisms. Inhibition of iodide influx was observed as reduced YFP fluorescence quenching in response to rapid iodide addition to each well of 96-well plates. […]

[1] = Table 2, screening, 5 μM, read-out: % Inhibition at 5 μM
[2] = Table 2, screening, 25 μM, read-out: % Inhibition at 25 μM
[3] = read-out: % inhibition at 25/5 μM (5 μM value), Table 1, 5 μM compound
[4] = read-out: % inhibition at 25/5 μM (25 μM value), Table 1, 25 μM compound

T1 sequence (P13569 whole entry): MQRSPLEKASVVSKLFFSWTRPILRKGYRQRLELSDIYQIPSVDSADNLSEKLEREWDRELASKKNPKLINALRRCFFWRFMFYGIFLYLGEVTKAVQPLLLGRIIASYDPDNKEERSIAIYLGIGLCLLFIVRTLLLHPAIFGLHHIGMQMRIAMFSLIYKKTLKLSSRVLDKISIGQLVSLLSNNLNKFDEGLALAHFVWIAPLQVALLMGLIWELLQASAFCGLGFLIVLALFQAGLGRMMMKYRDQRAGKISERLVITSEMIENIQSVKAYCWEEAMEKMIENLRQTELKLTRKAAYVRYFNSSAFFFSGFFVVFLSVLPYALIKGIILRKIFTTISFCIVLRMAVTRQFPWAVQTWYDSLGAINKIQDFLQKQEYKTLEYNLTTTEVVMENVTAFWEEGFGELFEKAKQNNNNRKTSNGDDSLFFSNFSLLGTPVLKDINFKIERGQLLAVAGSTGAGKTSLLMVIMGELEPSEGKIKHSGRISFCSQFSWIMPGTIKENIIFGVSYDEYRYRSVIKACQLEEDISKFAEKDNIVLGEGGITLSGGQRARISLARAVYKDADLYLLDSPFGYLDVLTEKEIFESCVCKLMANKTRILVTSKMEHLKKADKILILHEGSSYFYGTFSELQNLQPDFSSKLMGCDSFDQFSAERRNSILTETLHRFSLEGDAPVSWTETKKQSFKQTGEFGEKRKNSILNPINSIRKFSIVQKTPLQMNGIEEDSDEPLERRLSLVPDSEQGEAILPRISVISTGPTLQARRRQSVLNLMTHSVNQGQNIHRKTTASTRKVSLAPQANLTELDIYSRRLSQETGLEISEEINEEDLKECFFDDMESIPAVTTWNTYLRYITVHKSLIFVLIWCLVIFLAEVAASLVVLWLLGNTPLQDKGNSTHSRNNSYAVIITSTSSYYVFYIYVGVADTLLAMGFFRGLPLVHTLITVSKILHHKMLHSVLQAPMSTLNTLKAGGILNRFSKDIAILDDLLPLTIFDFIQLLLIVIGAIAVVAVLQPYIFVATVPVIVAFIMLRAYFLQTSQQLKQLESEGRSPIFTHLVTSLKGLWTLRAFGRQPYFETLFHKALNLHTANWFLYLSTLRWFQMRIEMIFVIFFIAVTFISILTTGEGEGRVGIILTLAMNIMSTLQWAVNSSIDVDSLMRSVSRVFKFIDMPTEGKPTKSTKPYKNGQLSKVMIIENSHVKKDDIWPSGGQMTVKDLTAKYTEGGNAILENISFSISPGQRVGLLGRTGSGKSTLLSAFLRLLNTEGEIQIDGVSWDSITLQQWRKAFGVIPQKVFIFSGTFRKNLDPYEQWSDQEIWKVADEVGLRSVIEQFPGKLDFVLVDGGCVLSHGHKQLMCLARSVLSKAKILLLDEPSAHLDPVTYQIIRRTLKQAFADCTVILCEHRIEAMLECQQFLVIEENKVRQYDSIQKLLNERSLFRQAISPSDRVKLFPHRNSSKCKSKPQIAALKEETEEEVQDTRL

Structure (SMILES) | inhibition at 5 µM [1] [%] | inhibition at 25 µM [2] [%] | inhibition at 5 µM [3] [%] | inhibition at 25 µM [4] [%] | IC50 [nM]
COc1ccccc1C1Nc2cc(C)c(C)cc2-n2c(-c3ccccc3)c3c(=O)n(C)c(=O)n(C)c3c21 (stereo not drawn) | < 10 | 47 |  |  | 
Cc1ccc(C2Nc3ccccc3-n3c(-c4ccc(Cl)cc4)c4c(=O)n(C)c(=O)n(C)c4c32)o1 (stereo not drawn) [PPQ-111, 7,9-Dimethyl-11-(4-cholophenyl)-6-(5-methylfuran-2-yl)-5,6-dihydro-pyrimido[4′,5′-3,4]pyrrolo[1,2-a]quinoxaline-8,10-(7H,9H)-dione] | 31 | 75 |  |  | 
Cc1cc2c(cc1C)-n1c(-c3ccccc3F)c3c(=O)n(C)c(=O)n(C)c3c1C(c1ccccc1F)N2 (stereo not drawn) | 23 | 35 |  |  | 
COc1cccc(C2Nc3ccccc3-n3c(-c4ccc(Cl)cc4)c4c(=O)n(C)c(=O)n(C)c4c32)c1 (stereo not drawn) | < 10 | 41 |  |  | 
Cc1ccc(C2Nc3cc(C)c(C)cc3-n3c(-c4ccccc4F)c4c(=O)n(C)c(=O)n(C)c4c32)o1 (stereo not drawn) [PPQ-105, 2,3,7,9-Tetramethyl-11-(2-fluorophenyl)-6-(5-methylfuran-2-yl)-5,6-dihydro-pyrimido[4′,5′-3,4]pyrrolo[1,2-a]quinoxaline-8,10-(7H,9H)-dione] | 78 | 78 |  |  | 1500
Cc1ccccc1-c1c2c(=O)n(C)c(=O)n(C)c2c2n1-c1ccccc1NC2c1ccco1 (stereo not drawn) [PPQ-108, 7,9-Dimethyl-11-(2-methylphenyl)-6-(furan-2-yl)-5,6-dihydro-pyrimido[4′,5′-3,4]pyrrolo[1,2-a]quinoxaline-8,10-(7H,9H)-dione] | 18 | 70 |  |  | 
CCOc1cc(C2Nc3ccccc3-n3c(-c4ccccc4)c4c(=O)n(C)c(=O)n(C)c4c32)ccc1O (stereo not drawn) | < 10 | 47 |  |  | 
Cc1cc2c(cc1C)-n1c(-c3ccccc3F)c3c(=O)n(C)c(=O)n(C)c3c1C(c1ccco1)N2 (stereo not drawn) | 41 | 44 |  |  | 
Cn1c(=O)c2c(-c3ccccc3F)n3c(c2n(C)c1=O)C(c1ccc(Cl)cc1)Nc1ccccc1-3 (stereo not drawn) | < 10 | 44 |  |  | 
CCOc1ccc(C2Nc3ccccc3-n3c(-c4ccccc4C)c4c(=O)n(C)c(=O)n(C)c4c32)cc1 (stereo not drawn) | < 10 | 32 |  |  | 
COc1ccc(O)c(C2Nc3ccccc3-n3c(-c4ccccc4C)c4c(=O)n(C)c(=O)n(C)c4c32)c1 (stereo not drawn) | < 10 | 38 |  |  | 
COc1ccc(O)c(C2Nc3ccccc3-n3c(-c4ccccc4)c4c(=O)n(C)c(=O)n(C)c4c32)c1 (stereo not drawn) | < 10 | 33 |  |  | 

Second part, the compound after the results:

inhibition at 5 µM [1] [%] | inhibition at 25 µM [2] [%] | inhibition at 5 µM [3] [%] | inhibition at 25 µM [4] [%] | IC50 [nM] | Structure (SMILES)
64 | 96 | 64 | 96 | 2000 | Cc1ccccc1-c1c2c(=O)n(C)c(=O)n(C)c2c2n1-c1ccccc1NC2c1cccc([N+](=O)[O-])c1 (stereo not drawn) [PPQ-213, 7,9-Dimethyl-11-(2-methylphenyl)-6-(3-nitrophenyl)-5,6-dihydro-pyrimido[4′,5′-3,4]pyrrolo[1,2-a]quinoxaline-8,10-(7H,9H)-dione]
61 | 92 |  |  |  | Cc1cc2c(cc1C)-n1c(-c3ccccc3)c3c(=O)n(C)c(=O)n(C)c3c1C(c1ccccc1)N2 (stereo not drawn) [PPQ-226, 2,3,7,9-Tetramethyl-11-phenyl-6-phenyl-5,6-dihydro-pyrimido[4′,5′-3,4]pyrrolo[1,2-a]quinoxaline-8,10-(7H,9H)-dione]
24 | 82 |  |  |  | Cc1cc2c(cc1C)-n1c(-c3ccccc3)c3c(=O)n(C)c(=O)n(C)c3c1C(c1ccc(O)c(O)c1)N2 (stereo not drawn) [PPQ-224, 2,3,7,9-Tetramethyl-11-phenyl-6-(3,4-dihydroxyphenyl)-5,6-dihydro-pyrimido[4′,5′-3,4]pyrrolo[1,2-a]quinoxaline-8,10-(7H,9H)-dione]
21 | 64 |  |  |  | Cn1c(=O)c2c(-c3ccccc3)n3c(c2n(C)c1=O)C(c1ccc(F)cc1)Nc1ccccc1-3 (stereo not drawn) [PPQ-249, 7,9-Dimethyl-11-phenyl-6-(4-fluorophenyl)-5,6-dihydro-pyrimido[4′,5′-3,4]pyrrolo[1,2-a]quinoxaline-8,10-(7H,9H)-dione]
28 | 82 |  |  |  | Cn1c(=O)c2c(-c3ccccc3F)n3c(c2n(C)c1=O)C(c1ccc(F)cc1)Nc1ccccc1-3 (stereo not drawn) [PPQ-233, 7,9-Dimethyl-11-(2-fluorophenyl)-6-(4-fluorophenyl)-5,6-dihydro-pyrimido[4′,5′-3,4]pyrrolo[1,2-a]quinoxaline-8,10-(7H,9H)-dione]
11 | 54 |  |  |  | Cn1c(=O)c2c(-c3ccccc3)n3c(c2n(C)c1=O)C(c1ccco1)Nc1ccccc1-3 (stereo not drawn) [PPQ-112, 7,9-Dimethyl-11-phenyl-6-(5-furan-2-yl)-5,6-dihydro-pyrimido[4′,5′-3,4]pyrrolo[1,2-a]quinoxaline-8,10-(7H,9H)-dione]
64 | 86 | 64 | 86 | 4500 | Cn1c(=O)c2c(-c3ccccc3)n3c(c2n(C)c1=O)C(c1ccc(O)cc1)Nc1ccccc1-3 (stereo not drawn) [PPQ-207, 7,9-Dimethyl-11-phenyl-6-(4-hydroxyphenyl)-5,6-dihydro-pyrimido[4′,5′-3,4]pyrrolo[1,2-a]quinoxaline-8,10-(7H,9H)-dione]
14 | 80 |  |  |  | Cc1cc2c(cc1C)-n1c(-c3ccccc3)c3c(=O)n(C)c(=O)n(C)c3c1C(c1cccc(O)c1O)N2 (stereo not drawn) [PPQ-236, 2,3,7,9-Tetramethyl-11-phenyl-6-(2,3-dihydroxyphenyl)-5,6-dihydro-pyrimido[4′,5′-3,4]pyrrolo[1,2-a]quinoxaline-8,10-(7H,9H)-dione]
30 | 83 |  |  |  | Cc1cccc(-c2c3c(=O)n(C)c(=O)n(C)c3c3n2-c2ccccc2NC3c2cccc(O)c2)c1 (stereo not drawn) [PPQ-228, 7,9-Dimethyl-11-(3-methylphenyl)-6-(3-hydroxyphenyl)-5,6-dihydro-pyrimido[4′,5′-3,4]pyrrolo[1,2-a]quinoxaline-8,10-(7H,9H)-dione]
51 | 87 |  |  |  | Cn1c(=O)c2c(-c3ccccc3F)n3c(c2n(C)c1=O)C(c1cccc(F)c1)Nc1ccccc1-3 (stereo not drawn) [PPQ-230, 7,9-Dimethyl-11-(2-fluorophenyl)-6-(3-fluorophenyl)-5,6-dihydro-pyrimido[4′,5′-3,4]pyrrolo[1,2-a]quinoxaline-8,10-(7H,9H)-dione]
62 | > 95 | 62 |  | 3000 | COc1cccc(C2Nc3ccccc3-n3c(-c4ccccc4C)c4c(=O)n(C)c(=O)n(C)c4c32)c1 (stereo not drawn) [PPQ-216, 7,9-Dimethyl-11-(2-methylphenyl)-6-(3-methoxyphenyl)-5,6-dihydro-pyrimido[4′,5′-3,4]pyrrolo[1,2-a]quinoxaline-8,10-(7H,9H)-dione]
57 | 90 |  |  |  | Cc1ccccc1-c1c2c(=O)n(C)c(=O)n(C)c2c2n1-c1ccccc1NC2c1cccc(F)c1 (stereo not drawn) [PPQ-229, 7,9-Dimethyl-11-(2-methylphenyl)-6-(3-fluorophenyl)-5,6-dihydro-pyrimido[4′,5′-3,4]pyrrolo[1,2-a]quinoxaline-8,10-(7H,9H)-dione]
12 | 80 |  |  |  | Cc1cc2c(cc1C)-n1c(-c3ccccc3)c3c(=O)n(C)c(=O)n(C)c3c1C(c1ccc(O)cc1O)N2 (stereo not drawn) [PPQ-235, 2,3,7,9-Tetramethyl-11-phenyl-6-(2,4-dihydroxyphenyl)-5,6-dihydro-pyrimido[4′,5′-3,4]pyrrolo[1,2-a]quinoxaline-8,10-(7H,9H)-dione]
53 | 93 | 53 | 93 | 8000 | Cc1cccc(-c2c3c(=O)n(C)c(=O)n(C)c3c3n2-c2ccccc2NC3c2cccc(F)c2)c1 (stereo not drawn) [PPQ-219, 7,9-Dimethyl-11-(3-methylphenyl)-6-(3-fluorophenyl)-5,6-dihydro-pyrimido[4′,5′-3,4]pyrrolo[1,2-a]quinoxaline-8,10-(7H,9H)-dione]
45 | 76 |  |  |  | Cn1c(=O)c2c(-c3ccccc3)n3c(c2n(C)c1=O)C(c1cccc(F)c1)Nc1ccccc1-3 (stereo not drawn) [PPQ-239, 7,9-Dimethyl-11-phenyl-6-(3-fluorophenyl)-5,6-dihydro-pyrimido[4′,5′-3,4]pyrrolo[1,2-a]quinoxaline-8,10-(7H,9H)-dione]
